IC50 data for one compound are collected here from US9943504B2, “Arginine methyltransferase inhibitors and uses thereof” (Epizyme, Inc., priority 2013, dated 2018).

Broadly, the IC50 is the point on the concentration scale where inhibition reaches its midpoint.

In this experiment the target is T1, human PRMT1 (Homo sapiens, UniProt Q99873).
T1 construct: GST-tagged PRMT1; made in house; host or cells: High Five insect cells (baculovirus)
In words: PRMT1 Biochemical Assay. The note with it: biochemical evaluation, peptide substrate. The source says:
S-adenosylmethionine (SAM), S-adenosylhomocysteine (SAH), bicine, Tween20, dimethylsulfoxide (DMSO), bovine skin gelatin (BSG), and Tris(2-carboxyethyl)phosphine hydrochloride solution (TCEP) were purchased from Sigma-Aldrich at the highest level of purity possible. ^3H-SAM was purchase from American Radiolabeled Chemicals with a specific activity of 80 Ci/mmol. 384-well streptavidin Flashplates were purchased from PerkinElmer.
Peptide representative of human histone H4 residues 36-50 was synthesized with an N-terminal linker-affinity tag motif and a C-terminal amide cap by 21st Century Biochemicals. The peptide was purified by high-performance liquid chromatography (HPLC) to greater than 95% purity and confirmed by liquid chromatography mass spectrometry (LC-MS). The sequence was Biot-Ahx-[…]-amide (SEQ ID NO.: 1). […]
The assays were all performed in a buffer consisting of 20 mM Bicine (pH=7.6), 1 mM TCEP, 0.005% BSG, and 0.002% Tween 20, prepared on the day of use. […] The plates were then read in a PerkinElmer TopCount plate reader to measure the quantity of ^3H-labeled peptide bound to the Flashplate surface, measured as disintegrations per minute (dpm) or alternatively, referred to as counts per minute (cpm). […]

T1 sequence (Q99873 with tags, fused parts or gaps): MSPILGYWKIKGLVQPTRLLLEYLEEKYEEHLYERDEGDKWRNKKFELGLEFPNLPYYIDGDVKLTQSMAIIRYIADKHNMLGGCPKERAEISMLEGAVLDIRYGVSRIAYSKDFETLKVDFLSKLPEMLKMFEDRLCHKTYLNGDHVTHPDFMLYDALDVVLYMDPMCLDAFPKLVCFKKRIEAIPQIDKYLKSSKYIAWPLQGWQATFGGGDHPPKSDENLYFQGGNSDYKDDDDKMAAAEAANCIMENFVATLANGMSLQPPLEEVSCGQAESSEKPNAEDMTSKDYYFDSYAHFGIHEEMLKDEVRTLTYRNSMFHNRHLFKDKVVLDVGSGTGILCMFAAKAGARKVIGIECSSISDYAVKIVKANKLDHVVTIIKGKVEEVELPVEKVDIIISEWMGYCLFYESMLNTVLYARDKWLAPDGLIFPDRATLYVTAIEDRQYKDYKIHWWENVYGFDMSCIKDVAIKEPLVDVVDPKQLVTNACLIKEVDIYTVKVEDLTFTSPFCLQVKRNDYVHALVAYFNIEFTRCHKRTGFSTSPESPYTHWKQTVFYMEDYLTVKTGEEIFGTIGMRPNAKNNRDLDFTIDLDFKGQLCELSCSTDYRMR

`CN(CCN)Cc1n[nH]c2cccc(OCc3ccccc3)c12` [Compound 1] returned an IC50 of no more than 100 nM.
